Data reported in US5525599A, “7-substituted-amino-3-substituted-3-cephem-4-carboxylic acids” (Eli Lilly and Company, priority 1993, dated 1996).
In brackets after ≈: the same amount, converted by molar mass. Like-named read-outs stand apart in the source and are kept apart here.

What was measured:
other Gram(-) bacteria = experiment: In vitro activity (MIC), agar dilution method; format: cell-based
[1] = MICs against 4 strains of methicillin-resistant staphylococci; format: cell-based, Staphylococcus aureus and Staphylococcus epidermidis; settings: Staphylococcus aureus, read-out: minimal inhibitory concentrations (MICs)
Method: (§1) Cephalosporins 9a-o were assayed against a broad array of Gram-positive and Gram-negative bacteria in Mueller-Hinton agar by the 2-fold serial dilution method, (Kirst, H. A.; J. Antibiot. 1982, 35, 1675).
(§2) Test compounds were diluted to an appropriate range of concentrations in 0.1M phosphate buffer (pH 7), incorporated into Mueller-Hinton agar (difco) supplemented with 1% Bacto-Supplement C (Difco) at 50° C. and allowed to solidify in petri dishes. Fresh overnight cultures of test bacteria were diluted to approximately 1×10^4 cells/mL aand applied in […] to the surface of the agar plates. The inoculated plates were incubated overnight at 35° C. in ambient air. MIC endpoints were recorded as the lowest antibiotic concentrations that inhibited the development of visible bacterial growth on the plates.

E. coli (EC14) = experiment: In vitro activity (MIC), agar dilution method; format: cell-based; settings: Escherichia coli
Method: as §1, §2

K. pneumonia (KAE) = experiment: In vitro activity (MIC), agar dilution method; format: cell-based; settings: Klebsiella pneumoniae
Method: as §1, §2

Staph. aureus (X400) = experiment: In vitro activity (MIC), agar dilution method; format: cell-based; settings: Staphylococcus aureus; Staph. aureus (X400), methicillin-resistant strain, agar dilution; read-out: MIC
Method: as §1, §2

Staph. aureus (S13E) = experiment: In vitro activity (MIC), agar dilution method; format: cell-based; settings: Staphylococcus aureus
Method: as §1, §2

Enter. faecalis (2041) = experiment: In vitro activity (MIC), agar dilution method; format: cell-based; settings: Enterococcus faecalis; Enter. faecalis (2041), agar dilution; read-out: MIC
Method: as §1, §2

Staph. aureus (V41) = experiment: In vitro activity (MIC), agar dilution method; format: cell-based; settings: Staphylococcus aureus; Staph. aureus (V41), agar dilution; read-out: MIC
Method: as §1, §2

K. pneumonia (X68) = experiment: In vitro activity (MIC), agar dilution method; format: cell-based; settings: Klebsiella pneumoniae
Method: as §1, §2

Staph. aureus (X1.1) = experiment: In vitro activity (MIC), agar dilution method; format: cell-based; settings: Staphylococcus aureus; Staph. aureus (X1.1), agar dilution; read-out: MIC
Method: as §1, §2

Staph. epiderm. (222) = experiment: In vitro activity (MIC), agar dilution method; format: cell-based; settings: Staphylococcus epidermidis; Staph. epiderm. (222), methicillin-resistant strain, agar dilution; read-out: MIC
Method: as §1, §2

K. pneumonia (X26) = experiment: In vitro activity (MIC), agar dilution method; format: cell-based; settings: Klebsiella pneumoniae; K. pneumonia (X26), agar dilution; read-out: MIC
Method: as §1, §2

E. coli (TEM) = experiment: In vitro activity (MIC), agar dilution method; format: cell-based; settings: Escherichia coli
Method: as §1, §2

Enter. faecium (X66) = experiment: In vitro activity (MIC), agar dilution method; format: cell-based; settings: Enterococcus faecium; Enter. faecium (X66), agar dilution; read-out: MIC
Method: as §1, §2

Staph. epiderm. (270) = experiment: In vitro activity (MIC), agar dilution method; format: cell-based; settings: Staphylococcus epidermidis, methicillin-resistant strain
Method: as §1, §2

E. coli (N10) = experiment: In vitro activity (MIC), agar dilution method; format: cell-based; settings: Escherichia coli
Method: as §1, §2

Strept. pyogenes (C203) = experiment: In vitro activity (MIC), agar dilution method; format: cell-based; settings: Streptococcus pyogenes; Strept. pyogenes (C203), agar dilution; read-out: MIC
Method: as §1, §2

H. influenzae (C.L.) = experiment: In vitro activity (MIC), agar dilution method; format: cell-based; settings: Haemophilus influenzae; H. influenzae (C.L.), agar dilution; read-out: MIC
Method: as §1, §2

H. influenzae (76) = experiment: In vitro activity (MIC), agar dilution method; format: cell-based; settings: Haemophilus influenzae; H. influenzae (76), agar dilution; read-out: MIC
Method: as §1, §2

[2] = tested on: methicillin-resistant staphylococci; settings: in words; Chambers 1984; cited from earlier work
[3] = tested on: 33 strains of methicillin-resistant staphylococci; experiment: Geometric mean MICs against 33 strains of methicillin-resistant staphylococci; format: cell-based
Method: as §2
It is known that resistance to methicillin in staphylococci is often of the heterogeneous type and therefore not easily detected. […] (Goldstein, F. W.; Acar, J. J. Antimicrob. Chemother. […], 27, 549). […] J.; Drake T. A.; Rusnak, M. G.; Sande, M. A. J. Infect. Dis. 1984, 149, 894).

[4] = tested on: methicillin-resistant staphylococci; settings: in words; Frongillo 1986; cited from earlier work
[5] = tested on: methicillin-resistant staphylococci; settings: in words; Frongillo 1984; cited from earlier work

Row | SMILES | MIC (other Gram(-) bacteria) | MIC [1] | MIC (E. coli (EC14)) | MIC (K. pneumonia (KAE)) | MIC (Staph. aureus (X400)) | MIC (Staph. aureus (S13E)) | MIC (Enter. faecalis (2041)) | MIC (Staph. aureus (V41)) | MIC (K. pneumonia (X68)) | MIC (Staph. aureus (X1.1)) | MIC (Staph. epiderm. (222)) | MIC (K. pneumonia (X26)) | MIC (E. coli (TEM)) | MIC (Enter. faecium (X66)) | MIC (Staph. epiderm. (270)) | MIC (E. coli (N10)) | MIC (Strept. pyogenes (C203)) | MIC (H. influenzae (C.L.)) | MIC (H. influenzae (76)) | also measured
1 | CC(=O)OCC1=C(C(=O)O)N2C(=O)[C@@H](NC(=O)Cc3csc(-c4cccc(O)c4)n3)[C@H]2SC1 [9m, [6R-[6A,7B(R*)]]-3-[(Acetyloxy)methyl]-7-[[[2-(3-hydroxyphenyl)-4-thiazolyl]acetyl]amino]-8-oxo-5-thia-1-azabicyclo[4.2.0]oct-2-ene-2-carboxylic Acid] | > 64 µg/mL | ≤ 16 µg/mL | 128 µg/mL (≈ 261 µM) | 128 µg/mL (≈ 261 µM) | 16 µg/mL (≈ 32.7 µM) | 8 µg/mL (≈ 16.3 µM) | 16 µg/mL (≈ 32.7 µM) | 1 µg/mL (≈ 2.04 µM) | 128 µg/mL (≈ 261 µM) | 0.25 µg/mL (≈ 0.511 µM) | 0.25 µg/mL (≈ 0.511 µM) | 4 µg/mL (≈ 8.17 µM) | 128 µg/mL (≈ 261 µM) | 32 µg/mL (≈ 65.4 µM) | 1 µg/mL (≈ 2.04 µM) | 128 µg/mL (≈ 261 µM) |  |  |  | 
2 | COc1ccccc1-c1nc(CC(=O)N[C@@H]2C(=O)N3C(C(=O)O)=C(COC(C)=O)CS[C@H]23)cs1 [9o, [6R-[6A,7B(R*)]]-3-[(Acetyloxy)methyl]-7-[[[2-(2-methoxyphenyl)-4-thiazolyl]acetyl]amino]-8-oxo-5-thia-1-azabicyclo[4.2.0]oct-2-ene-2-carboxylic Acid] | > 64 µg/mL | ≤ 16 µg/mL | 128 µg/mL (≈ 254 µM) | 128 µg/mL (≈ 254 µM) | 16 µg/mL (≈ 31.8 µM) | 8 µg/mL (≈ 15.9 µM) | 8 µg/mL (≈ 15.9 µM) | 0.5 µg/mL (≈ 0.993 µM) | 128 µg/mL (≈ 254 µM) | 0.06 µg/mL (≈ 0.119 µM) | 0.125 µg/mL (≈ 0.248 µM) | 2 µg/mL (≈ 3.97 µM) | 128 µg/mL (≈ 254 µM) | 16 µg/mL (≈ 31.8 µM) | 0.5 µg/mL (≈ 0.993 µM) | 128 µg/mL (≈ 254 µM) | 0.015 µg/mL (≈ 0.0298 µM) | 64 µg/mL (≈ 127 µM) | 4 µg/mL (≈ 7.94 µM) | 
3 | Cn1nnnc1SCC1=C(C(=O)O)N2C(=O)[C@@H](NC(=O)[C@H](O)c3ccccc3)[C@H]2SC1 [Cefamandole] |  |  |  |  |  |  |  |  |  |  |  |  |  |  |  |  |  |  |  | efficacy in animal models versus vancomycin [2]: poorer efficacy than vancomycin in animal models; MIC ([3]; MHA + 4% NaCl, 33 strains, 35° C., read-out: Geometric mean MIC): 13 µg/mL; MIC ([3]; MHA, 33 strains, read-out: Geometric mean MIC): 6.8 µg/mL (≈ 14.7 µM); clinical use for treatment of infections caused by methicillin-resistant staphylococci [4]: successfully used clinically for the treatment of infections caused by methicillin-resistant staphylococci; activity against methicillin-resistant staphylococci [5]: among the most active β-lactam antibiotics against methicillin-resistant staphylococci
4 | CO/N=C(\C(=O)N[C@@H]1C(=O)N2C(C(=O)O)=C(COC(C)=O)CS[C@H]12)c1csc(N)n1 [Cefot, Cefotaxime, reference compound] |  |  |  |  | 128 µg/mL (≈ 281 µM) | 64 µg/mL (≈ 141 µM) | 1 µg/mL (≈ 2.2 µM) | 2 µg/mL (≈ 4.39 µM) |  | 1 µg/mL (≈ 2.2 µM) | 2 µg/mL (≈ 4.39 µM) | 0.008 µg/mL (≈ 0.0176 µM) | 0.008 µg/mL (≈ 0.0176 µM) | 128 µg/mL (≈ 281 µM) | 8 µg/mL (≈ 17.6 µM) |  | 0.008 µg/mL (≈ 0.0176 µM) | 0.008 µg/mL (≈ 0.0176 µM) | 0.008 µg/mL (≈ 0.0176 µM) | MIC (E. coli (EC14); E. coli (EC14), agar dilution, read-out: MIC): 0.015 µg/mL (≈ 0.0329 µM); MIC (K. pneumonia (KAE); K. pneumonia (KAE), agar dilution, read-out: MIC): 1 µg/mL (≈ 2.2 µM); MIC (K. pneumonia (X68); K. pneumonia (X68), agar dilution, read-out: MIC): 0.015 µg/mL (≈ 0.0329 µM); MIC (E. coli (N10); E. coli (N10), agar dilution, read-out: MIC): 0.06 µg/mL (≈ 0.132 µM)
5 | Cc1onc(-c2ccccc2)c1C(=O)N[C@@H]1C(=O)N2[C@@H]1SC(C)(C)[C@@H]2C(=O)O [Oxacillin, reference compound] |  |  |  |  |  |  |  |  |  |  |  |  |  |  |  |  |  |  |  | MIC ([3]; read-out: Geometric mean MIC, MHA + 4% NaCl, 33 strains, 35° C.): 97 µg/mL; MIC ([3]; read-out: Geometric mean MIC, MHA, 33 strains): 49 µg/mL (≈ 122 µM)
